The values below come from patent US20230233514A1, “ANTIVIRAL COMPOUNDS AND METHODS OF USING THE SAME” (priority 2020, published 2023).

Data set [1] concerns SARS-CoV-2. Type of data set: cell-based.
For data set [2], the system named is SARS-CoV-2. It is filed as cell-based. As to conditions: compound 10 and 31.6 μM, MOI 0.01, 72 hours.
The subject of data set [3] is Vero E6 cells.
Data set [4] has as its system Vero E6 cells. As to conditions: 48 hours, CellTiterGlo.
Setting [5] is: 1 hour pre-treatment, 1 nM-100 μM, MOI 0.05, 48 hours, Vero E6 cells.

Where two headings read alike, the source gives them in different places.

On to `O=C(O[C@H]1Cc2c(O)cc(O)cc2O[C@H]1c1cc(O)c(O)c2c(=O)c(O)cc([C@H]3Oc4cc(O)cc(O)c4C[C@H]3O)cc12)c1cc(O)c(O)c(O)c1` [Theaflavin-3-gallate, Theaflavin 3-gallate], for which, in the data set on SARS-CoV-2 [1] (setting [5]), the “effect on Viral Load (viral burden)” value is “reduction in Viral Load levels”.

Turning to `O=c1oc2cc(O)ccc2c2ccc(O)cc12` [Urolithin A], in the data set with SARS-CoV-2 [2], the “Remdesivir concentration at which the compound synergized” value is at most 1.25 µM and the “combined effect with Remdesivir on host cell viability” value is on record as “synergized”.

With `COc1cc(O)c2c(=O)cc(-c3ccc(OC)c(-c4c(O)cc(O)c5c(=O)cc(-c6ccc(O)cc6)oc45)c3)oc2c1` [Ginkgetin], in the data set on SARS-CoV-2 [1] (setting [5]), the “effect on Viral Load (viral burden)” value is “reduction in Viral Load levels”.

For the molecule `C[C@@H]1O[C@@H](OC[C@H]2O[C@@H](Oc3c(-c4ccc(O)c(O)c4)oc4cc(O)cc(O)c4c3=O)[C@H](O)[C@@H](O)[C@@H]2O)[C@H](O)[C@H](O)[C@H]1O` [Rutin], the “effect on Host Cell Number (cell viability)” value (“effect on Host Cell Number” below) in the data set with Vero E6 cells [3] is recorded as “did not show an effect”.

Turning to Hypericin, the “effect on Viral Load (viral burden)” value in the data set on SARS-CoV-2 [1] (setting [5]) was “reduction in Viral Load levels”.

Regarding `Oc1cc(O)c2c(c1)O[C@H](c1ccc(O)c(O)c1)[C@H](O)[C@H]2c1c(O)cc(O)c2c1O[C@H](c1ccc(O)c(O)c1)[C@H](O)C2` [Procyanidin B2], the “effect on Host Cell Number” value in the data set with Vero E6 cells [3] is recorded as “did not show an effect”. Besides, in the data set with SARS-CoV-2 [1] (setting [5]), the “effect on Viral Load (viral burden)” value is “did not show an effect”.

Consider `O=c1c(O)cc([C@H]2Oc3cc(O)cc(O)c3C[C@H]2O)cc2c([C@H]3Oc4cc(O)cc(O)c4C[C@H]3O)cc(O)c(O)c12` [Theaflavin], for which, in the data set on Vero E6 cells [3], the “effect on Host Cell Number” value is “did not show an effect”. In addition, the “effect on Viral Load (viral burden)” value with SARS-CoV-2 [1] (setting [5]) is “did not show an effect”.

Consider Miquelianin/Quercetin 3-glucuronide, for which the “effect on Viral Load (viral burden)” value in the data set on SARS-CoV-2 [1] is “did not show an effect”.

For the molecule `O=c1oc2c(O)c(O)cc3c(=O)oc4c(O)c(O)cc1c4c23` [Ellagic Acid], in the data set with SARS-CoV-2 [2], the “Remdesivir concentration at which the compound synergized” value is at most 0.625 µM and the “combined effect with Remdesivir on host cell viability” value is recorded as “synergized”.

Regarding `COc1ccc(-c2cc(=O)c3c(O)cc(O)cc3o2)cc1-c1c(O)cc(O)c2c(=O)cc(-c3ccc(O)cc3)oc12` [Bilobetin], the “effect on Viral Load (viral burden)” value in the data set on SARS-CoV-2 [1] (setting [5]) is reported as “reduction in Viral Load levels”.

As to `CN1C[C@@H](C(=O)N[C@]2(C)O[C@@]3(O)[C@@H]4CCCN4C(=O)[C@H](Cc4ccccc4)N3C2=O)C=C2c3cccc4[nH]cc(c34)C[C@H]21` [Ergotamine], in the data set on SARS-CoV-2 [1] (setting [5]), the “effect on Viral Load (viral burden)” value is listed as “reduction in Viral Load levels”.

Take `C[C@@H]1CC[C@@]2(OC1)O[C@H]1C[C@H]3[C@@H]4CC=C5C[C@@H](O[C@@H]6O[C@H](CO)[C@@H](O[C@@H]7O[C@@H](C)[C@H](O)[C@@H](O)[C@H]7O)[C@H](O)[C@H]6O[C@@H]6O[C@@H](C)[C@H](O)[C@@H](O)[C@H]6O)CC[C@]5(C)[C@H]4CC[C@]3(C)[C@H]1[C@@H]2C` [Dioscin]: the “effect on Viral Load (viral burden)” value in the data set with SARS-CoV-2 [1] (setting [5]) was “reduction in Viral Load levels”. Moreover, in the data set with Vero E6 cells [4], the “concentrations that did not significantly impact Vero E6 cell viability compared to the DMSO treated control” value was “less than or equal to 0.1 μM” and the “toxicity observed at (and above) concentration” value is at least 1 µM.

Consider `CC1OC(OCC2OC(Oc3c(-c4ccc(O)cc4)oc4cc(OC5OC(C)C(O)C(O)C5O)cc(O)c4c3=O)C(O)C(O)C2O)C(O)C(O)C1O` (stereo not shown) [Robinin], for which the “effect on Host Cell Number” value in the data set with Vero E6 cells [3] is “did not show an effect”. Besides, the “effect on Viral Load (viral burden)” value in the data set with SARS-CoV-2 [1] (setting [5]) was “did not show an effect”.

With `O=c1cc(-c2ccc(O)c(-c3c(O)cc(O)c4c(=O)cc(-c5ccc(O)cc5)oc34)c2)oc2cc(O)cc(O)c12` [Amentoflavone], the “effect on Viral Load (viral burden)” value with SARS-CoV-2 [1] (setting [5]) is recorded as “reduction in Viral Load levels”.

As for `O=C(/C=C/c1ccc(O)cc1)OC[C@H]1O[C@@H](Oc2c(-c3ccc(O)cc3)oc3cc(O)cc(O)c3c2=O)[C@H](O)[C@@H](O)[C@@H]1O` [Tiliroside], the “effect on Host Cell Number” value with Vero E6 cells [3] is “did not show an effect”. In addition, in the data set with Vero E6 cells [4], the “concentrations that only mildly impacted Vero E6 cell viability compared to the DMSO treated control” value is given as “less than or equal to 10 μM” and the “toxicity observed at (and above) concentration” value was at least 100 µM.

On to Punicalagin, for which the “effect on Viral Load (viral burden)” value with SARS-CoV-2 [1] (setting [5]) is given as “reduction in Viral Load levels”.
